Laboratory results from patent US20260250318A1, “COMPOSITIONS AND METHODS FOR CROSSING THE BLOOD BRAIN BARRIER” (VOYAGER THERAPEUTICS, INC., priority 2022, published 2026).

Columns and labels:
[1] = system: brains, heart, liver, muscle, and DRG of the NHPs; assay: Maturation of TTM-001 and TTM-002 capsids, NGS enrichment in NHP tissues; format: in vivo; conditions: relative to AAV9 control
Procedure, shortened: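 Variants carry mutations within and flanking the loop IV peptide insert: positions 450–466 were triplet-randomized, while positions 449–466 received low-frequency point mutations. The combined pool went into two NHPs, and each peptide was scored by NGS enrichment ratio against AAV9.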

[2] = system: brain; assay: Matured TTM-001 and TTM-002 variants, NGS enrichment in mouse brain; format: in vivo, mice; conditions: relative to AAV9 control
[3] = NGS fold-enrichment of RNA, NHP brain
[4] = NGS fold-enrichment, DRG of NHPs
[5] = NGS fold-enrichment, NHP liver DNA
[6] = NGS fold-enrichment, NHP liver RNA
[7] = NGS fold-enrichment, NHP muscle
[8] = NGS fold-enrichment, RNA, brain of NHPs
[9] = NGS fold-enrichment, heart of NHPs
[10] = NGS fold-enrichment, liver DNA of NHPs
[11] = NGS fold-enrichment, liver RNA of NHPs
[12] = NGS fold-enrichment, muscle of NHPs
[13] = NGS fold-enrichment, brain of mice
[14] = NGS fold-enrichment, mouse brain
[15] = NGS fold-enrichment of matured AAV capsid variants, NHP brain, RNA

Row | Sequence | Fold Enrichment relative to AAV9, DRG (NHP) [1, 4] | Fold Enrichment relative to AAV9, Brain (NHP) [1, 8] | Fold Enrichment relative to AAV9, Heart (NHP) [1, 9] | Fold Enrichment relative to AAV9, Liver DNA (NHP) [1, 10] | Fold Enrichment relative to AAV9, Liver RNA (NHP) [1, 11] | Fold Enrichment relative to AAV9, Muscle (NHP) [1, 12] | Fold Enrichment relative to AAV9, Brain (Mouse) [2, 13] | Fold Enrichment relative to AAV9, Brain (NHP) [1, 15] | Fold Enrichment relative to AAV9, DRG (NHP) ([1]; NHP DRG) | Fold Enrichment relative to AAV9, Heart (NHP) ([1]; NHP heart) | Fold Enrichment relative to AAV9, Liver DNA (NHP) ([1]; NHP liver, DNA) | Fold Enrichment relative to AAV9, Liver RNA (NHP) ([1]; NHP liver, RNA) | Fold Enrichment relative to AAV9, Muscle (NHP) ([1]; NHP muscle) | Fold Enrichment relative to AAV9, Brain (Mouse) ([2]; mouse brain) | further results
1 | KTINGSGSPHSKAHVRQT | 0.000 fold | 119.798 fold | 0.000 fold | 1.039 fold | 0.694 fold | 0.262 fold | 165.590 fold | – | – | – | – | – | – | – | Fold Enrichment relative to AAV9, Brain (NHP) [1, 3]: 119.798 fold; Fold Enrichment relative to AAV9, DRG (NHP) ([1]; NGS fold-enrichment, NHP DRG): 0.000 fold; Fold Enrichment relative to AAV9, Heart (NHP) ([1]; NGS fold-enrichment, NHP heart): 0.000 fold; Fold Enrichment relative to AAV9, Liver DNA (NHP) [1, 5]: 1.039 fold; Fold Enrichment relative to AAV9, Liver RNA (NHP) [1, 6]: 0.694 fold; Fold Enrichment relative to AAV9, Muscle (NHP) [1, 7]: 0.262 fold; Fold Enrichment relative to AAV9, Brain (Mouse) [2, 14]: 165.590 fold
2 | KTINGSGSPHSKAIGKQT | – | – | – | – | – | – | – | 56.158 fold | 0.000 fold | 0.000 fold | 0.088 fold | 0.887 fold | 0.000 fold | 110.132 fold | –
3 | KTINGSGSPHSKALHQHT | 0.000 fold | 77.502 fold | 0.052 fold | 0.188 fold | 0.000 fold | 0.041 fold | 68.196 fold | – | – | – | – | – | – | – | Fold Enrichment relative to AAV9, Brain (NHP) [1, 3]: 77.502 fold; Fold Enrichment relative to AAV9, DRG (NHP) ([1]; NGS fold-enrichment, NHP DRG): 0.000 fold; Fold Enrichment relative to AAV9, Heart (NHP) ([1]; NGS fold-enrichment, NHP heart): 0.052 fold; Fold Enrichment relative to AAV9, Liver DNA (NHP) [1, 5]: 0.188 fold; Fold Enrichment relative to AAV9, Liver RNA (NHP) [1, 6]: 0.000 fold; Fold Enrichment relative to AAV9, Muscle (NHP) [1, 7]: 0.041 fold; Fold Enrichment relative to AAV9, Brain (Mouse) [2, 14]: 68.196 fold
4 | KTINGSGSPHSKALMRQT | – | – | – | – | – | – | – | 57.234 fold | 0.060 fold | 0.036 fold | 0.517 fold | 1.798 fold | 0.100 fold | 81.332 fold | –
5 | KTINGSGSPHSKALNRQS | 0.136 fold | 96.843 fold | 0.532 fold | 0.178 fold | 0.042 fold | 0.000 fold | 55.945 fold | – | – | – | – | – | – | – | Fold Enrichment relative to AAV9, Brain (NHP) [1, 3]: 96.843 fold; Fold Enrichment relative to AAV9, DRG (NHP) ([1]; NGS fold-enrichment, NHP DRG): 0.136 fold; Fold Enrichment relative to AAV9, Heart (NHP) ([1]; NGS fold-enrichment, NHP heart): 0.532 fold; Fold Enrichment relative to AAV9, Liver DNA (NHP) [1, 5]: 0.178 fold; Fold Enrichment relative to AAV9, Liver RNA (NHP) [1, 6]: 0.042 fold; Fold Enrichment relative to AAV9, Muscle (NHP) [1, 7]: 0.000 fold; Fold Enrichment relative to AAV9, Brain (Mouse) [2, 14]: 55.945 fold
6 | KTINGSGSPHSKAPGLQT | 0.007 fold | 62.043 fold | 0.000 fold | 0.210 fold | 0.651 fold | 0.005 fold | 144.610 fold | – | – | – | – | – | – | – | –
7 | KTINGSGSPHSKAPGQQT | – | – | – | – | – | – | – | 54.071 fold | 0.065 fold | 0.000 fold | 0.179 fold | 0.542 fold | 0.004 fold | 73.440 fold | –
8 | KTINGSGSPHSKAPNLQI | – | – | – | – | – | – | – | 58.022 fold | 0.000 fold | 0.044 fold | 0.243 fold | 1.548 fold | 0.000 fold | 55.714 fold | –
9 | KTINGSGSPHSKAPSLQT | – | – | – | – | – | – | – | 52.137 fold | 0.041 fold | 1.614 fold | 0.222 fold | 0.902 fold | 0.002 fold | 70.363 fold | –
10 | KTINGSGSPHSKAPSMQT | – | – | – | – | – | – | – | 50.249 fold | 0.000 fold | 0.000 fold | 0.460 fold | 0.941 fold | 0.004 fold | 75.504 fold | –
11 | KTINGSGSPHSKAPSNQT | – | – | – | – | – | – | – | 52.680 fold | 1.494 fold | 4.762 fold | 0.208 fold | 0.330 fold | 0.003 fold | 87.951 fold | –
12 | KTINGSGSPHSKAQAFHT | 0.033 fold | 70.159 fold | 0.000 fold | 0.119 fold | 0.762 fold | 0.058 fold | 86.268 fold | – | – | – | – | – | – | – | –
13 | KTINGSGSPHSKAQAIHT | – | – | – | – | – | – | – | 56.047 fold | 0.000 fold | 0.000 fold | 0.890 fold | 0.887 fold | 212.32 fold | 81.908 fold | –
14 | KTINGSGSPHSKAQAIKT | 0.255 fold | 74.261 fold | 0.000 fold | 0.132 fold | 0.186 fold | 0.000 fold | 73.560 fold | – | – | – | – | – | – | – | –
15 | KTINGSGSPHSKAQAITT | – | – | – | – | – | – | – | 56.924 fold | 0.000 fold | 0.000 fold | 0.438 fold | 1.239 fold | 0.000 fold | 75.250 fold | –
16 | KTINGSGSPHSKAQAKGT | – | – | – | – | – | – | – | 51.727 fold | 0.048 fold | 0.016 fold | 0.525 fold | 0.271 fold | 0.000 fold | 104.917 fold | –
